{"source": "patent US20230090446A1", "about": "“ANTISENSE OLIGONUCLEOTIDE TARGETING LINC00518 FOR TREATING MELANOMA” (UNIVERSITE DE STRASBOURG, priority 2020, published 2023)", "test_system": "LINC00518", "assay": "LINC00518 expression by RT-qPCR in cells treated with MAPK pathway inhibitors", "settings": "501Mel and A375 cells, between 12-72 hours after treatment", "protocol": "Activated Caspase 3 was measured by FACS.\nSamples were taken at the indicated time points, total RNA was extracted, retrotranscribed and analyzed by qPCR for LINC00518 expression. B. LINC00518 RNA levels were quantified from scRNAseq of melanoma patient derived xenotransplants (PDXs) treated with Dabrafenib and Trametinib (GSE116237). […] LINC00518 RNA levels were quantified from RNA sequencing of melanoma patients treated with Durvalumab and Trametinib for 15 days (GSE158403). […] Cytoplasmic and mitochondrial RNA fractions were extracted, retrotranscribed and analyzed by qPCR for LINC00518 expression. […] Oxygen consumption rate (OCR) was measured using Agilent Seahorse. Basal and Maximal OCR and reserve capacity were calculated on the basis of OCR changes upon oligomycin (oligo), FCCP and Rotenone A (RotA) administration to the cells.\nTotal mRNA isolation was performed using the Genelute Mammalian Total RNA Miniprep Kit (Sigma) following manufacturer instructions, or using Trizol and isopropanol precipitation. […] Total and fractionated RNAs were treated with DNAsel following the TurboDnase free kit instructions (Thermofisher) and reversed transcribed using Superscript IV reverse transcriptase (Thermofisher) following manufacturer instructions. qRT-PCR was carried out with SYBR Green I (Roche) and monitored by a LightCycler 480 (Roche). […]"}
{"smiles": "CC(C)(C)c1nc(-c2cccc(NS(=O)(=O)c3c(F)cccc3F)c2F)c(-c2ccnc(N)n2)s1", "note": "[Dabrafenib]", "values": [{"measurement": "LINC00518 expression", "value": "up-regulation"}]}
